Measurements reported in ChEMBL document CHEMBL1157539, “Thousands of chemical starting points for antimalarial lead identification” (Nature, 2010).

Test system: Plasmodium falciparum
Test: GSK_TCMDC: Inhibition of Plasmodium falciparum 3D7 in whole erythrocytes, using parasite LDH activity as an index of growth.
Assay type: functional, organism-based
Conditions: Plasmodium falciparum, 3D7

| Structure (SMILES) | XC50 [µM] |
| --- | --- |
| Cc1nc(N)nc(N)c1-c1cccc(Cl)c1 | 1.17 |
| CC(C)CCN1C(=O)C(NC(=O)Oc2ccccc2)C(=O)N(CC23CC4CC(CC(C4)C2)C3)c2ccccc21 (stereo not drawn) | 0.752 |
| CN(CCN)Cc1cccc(-c2ccc(-c3nc4cc(C(F)(F)F)ccc4[nH]3)s2)c1 | 0.997 |
| CCCCn1c(=N)c(C(=O)NCc2cccnc2)cc2c(=O)n3cccc(C)c3nc21 | 0.745 |
| COc1cc(NC(=O)c2sc(-c3ccc(Cl)cc3)cc2NC(=O)c2cccc(N(C)C)c2)ccc1OCCN1CCCC1 | 0.709 |
| CCCN(CCC)CCOC(=O)C(OCC)(c1ccccc1)c1ccccc1 | 0.871 |
| COc1ccc2nccc(N3CCC(NCCNS(=O)(=O)c4ccc5c(c4)NC(=O)CS5)C3)c2n1 (stereo not drawn) | 0.901 |
| Cc1cc(Cl)ccc1NC(=O)Nc1ccc2nccc(N3CCN(C)CC3)c2c1 | 0.394 |
| CCOc1c(Br)cc(C)cc1CNCCCNc1nc2ccccc2[nH]1 | 0.666 |
| CCNc1cc(C(=O)N[C@@H](Cc2ccccc2)[C@H](O)CN[C@@H](C)c2ccccc2)cc(N2CCCC2=O)c1 | 0.666 |
| CCCCCCCCN1CCCN(C(=O)c2cccc(NC(=O)Nc3ccc4ccccc4c3)c2)CC1 | 0.762 |
| COc1ccc(NC(=O)Nc2cccc(-c3cccc(-c4nc5cc(F)ccc5[nH]4)c3)c2)cc1 | 0.171 |
| CC(C)c1ccc(OCC(O)CN(C)C(C)C(O)c2ccccc2)c(Br)c1 (stereo not drawn) | 0.815 |
| Cc1c(Cl)cccc1S(=O)(=O)N1CCCCC(c2ccc(C(F)(F)F)cc2)=N1 | 0.788 |
| N=C(N)NC(=O)Nc1cc(Br)c(Cl)c(Br)c1 | 0.765 |
| CCCc1cc(OC)c(C[C@H]2c3cc(O)c(Cl)cc3CCN2C)cc1OC | 0.576 |
| Cc1nnsc1C(=O)Nc1cccc(-c2ccc(-c3nc4ccccc4[nH]3)s2)c1 | 0.885 |
| COc1ccccc1C(=O)Nc1ccc(Nc2nc(C)cc(N(C)C)n2)cc1 | 0.789 |
| Clc1ccc(C2CCN(CCCOc3ccc4c(c3)CCNCC4)CC2)cc1 | 0.754 |
| CCc1cn2c3c(cc(C(=O)N[C@@H](Cc4ccccc4)[C@H](O)CNC4CC4)cc13)N(CC)S(=O)(=O)CC2 | 0.112 |
| Cn1cncc1CCCN(Cc1ccc(-c2ccc(C(F)(F)F)cc2)cc1)C(=O)Cn1c(CCc2cccc(F)c2F)cc(=O)c2cccnc21 | 1.25 |
| c1cc(CN2CCCCC2)cc(-c2ccc(-c3nc4ccccc4[nH]3)s2)c1 | 0.869 |
| Oc1ccccc1CNCc1ccc(-c2cnc(N3CCCC(c4ccccc4)C3)nc2)cc1 (stereo not drawn) | 0.689 |

| Structure (SMILES) | XC50 [µM] |
| --- | --- |
| Cc1cc(N[C@@H](CC(C)C)C(=O)NCCc2ccccc2)nc(NCCc2cccs2)n1 | 1.2 |
| Cc1cccc2nc(-c3cccc(-c4ccc(NC(=O)c5cnn6cccnc56)cc4)c3)[nH]c12 | 0.211 |
| Cc1cccc2nc(-c3ccc(-c4cccc(CNCCN(C)C)c4)cc3)[nH]c12 | 0.682 |
| Cc1cc(C)c(NC(=O)NC2CCN(CCCCCNC(=O)/C=C/c3ccc(Cl)c(Cl)c3)CC2)c(C)c1 | 0.797 |
| O=C(c1ccc(-c2cccc(-c3nc4cc(F)ccc4[nH]3)c2)cc1)N1CCCCC1CN1CCC(O)C1 (stereo not drawn) | 1.4 |
| COc1ccc(Cl)cc1S(=O)(=O)Nc1cccc(CCN2CCC(N3CCCCC3)CC2)c1 | 0.704 |
| O=C(NC(CCCN1CCC2(CC1)OCc1ccccc12)c1ccc(Cl)c(Cl)c1)c1cc(C(F)(F)F)cc(C(F)(F)F)c1 (stereo not drawn) | 0.543 |
| CC(C)N1CCN(C(CN2CCN(CCCOc3cccc(F)c3)CC2)c2ccc(F)cc2)CC1 (stereo not drawn) | 0.912 |
| COc1ccc(OCCCON2C(=N)N=C(N)NC2(C)C)cc1 | 0.0032 |
| COCCN1CCC(C(=O)NCC(C)(C)c2nc(-c3ccc(Br)c(O)c3)c(-c3ccncc3)[nH]2)CC1 | 0.911 |
| CC(C)c1cccc(OCC2CCN(c3ncc(C(=O)Nc4ccccc4)cc3Cl)CC2)c1 | 1.06 |
| OCC1CCN(Cc2ccc(-c3ccc(-c4nc5cc(F)ccc5[nH]4)s3)cc2)CC1 | 0.85 |
| O=C(Nc1cccc(F)c1)NC1CCN(c2ccnc3cc(Cl)ccc23)CC1 | 0.609 |
| O=C(/C=C/c1ccc(Cl)c(Cl)c1)NC1CCC(CN2CCC(c3coc4ccccc34)CC2)CC1 (stereo not drawn) | 0.826 |
| COc1ccc(-c2cccc(NC(=O)c3cccc(Cl)c3)c2)cc1CN1CCN(C)CC1 | 0.76 |
| Cc1c(Br)cc2nc(-c3ccc(C(=O)NC4CCN(Cc5ccccc5)CC4)cc3)[nH]c2c1C | 0.333 |
| COc1ccc(-c2cccc(NC(=O)c3cccc(C#N)c3)c2)cc1CN1CCCC1 | 0.748 |
| O=C(Nc1ccc(OC2CCN(Cc3ccsc3)CC2)c(Cl)c1)c1ccco1 | 0.784 |
| COc1ccc(-c2ccc(NC(=O)c3ccc(C#N)cc3)cc2)cc1CN1CCC(O)CC1 | 0.581 |
| NCc1ccc(CNCc2ccc(-c3ccc(-c4nc5cc(C(F)(F)F)ccc5[nH]4)s3)cc2)cc1 | 0.157 |
| O=C(/C=C/c1ccc(Cl)c(Cl)c1)NCCCCCCN1CCCN(C(=O)Nc2cc(Cl)cc(Cl)c2)CC1 | 0.78 |
| CC(CCON1C(N)=NC(N)=NC1(C)C)c1ccc(Cl)c(Cl)c1 (stereo not drawn) | 0.0032 |
| CCOc1cc(CC)ccc1C1CCN(CCN2CCC(CNC(=O)c3ccc(-c4ccc(C#N)cc4)cc3)CC2)CC1 | 0.708 |

| Structure (SMILES) | XC50 [µM] |
| --- | --- |
| O=C(NC1CCC(CN2CCC(c3c[nH]c4ccccc34)CC2)CC1)c1cc(-c2cccc(Cl)c2)n(-c2ccc(Cl)cc2Cl)n1 (stereo not drawn) | 1.08 |
| O=C(Nc1cccc(C(F)(F)F)c1)NC1CCN(c2ccnc3cc(Cl)ccc23)CC1 | 0.289 |
| O=C(Cc1c[nH]cn1)Nc1ccc(-c2cccc(-c3nc4cc(C(F)(F)F)ccc4[nH]3)c2)cc1 | 0.742 |
| CC(=O)c1c(C)[nH]c(C(=O)Nc2ccc(-c3nc4ccc(C)cc4s3)cc2)c1C | 0.837 |
| O=C1NC(C(=O)Nc2ccccc2)C(c2ccccc2)S1 (stereo not drawn) | 0.168 |
| CCN(CC)S(=O)(=O)c1ccc(C(=O)Oc2ccccc2N(Cc2ccc(OC)cc2)C2=NS(=O)(=O)c3ccccc32)cc1 | 0.585 |
| COc1ccc(CNCc2cccc(-c3ccc(-c4nc5ccccc5[nH]4)cc3)c2)cc1 | 0.311 |
| CCCC1N=C(N)N=C(N)N1c1ccccc1 (stereo not drawn) | 0.823 |
| COc1ccc(CCC(C)(C)NCC(O)c2cccc(C(F)(F)F)c2)cc1 (stereo not drawn) | 0.48 |
| Cc1ccc(Cn2nc(N3CCNCC3)ccc2=O)cc1NC(=O)Nc1ccc(-c2ccccc2)cc1 | 0.836 |
| O=c1ccccn1CCCC1CCCCN1 (stereo not drawn) | 0.809 |
| CCC(CC)N1CCN(CC(=O)Nc2ccc([N+](=O)[O-])cc2C(=O)Nc2cccc(OC)c2)CC1 | 0.866 |
| CN(C)CCc1coc2ccc(C(=O)Nc3ccc(-c4ccc(O)cc4)cc3)cc12 | 1.08 |
| CN1C(C)(C)CC(NC(=O)c2ccc(-c3nc4cc(Cl)c(Cl)cc4[nH]3)cc2)CC1(C)C | 0.73 |
| CN(C)S(=O)(=O)c1ccc(Nc2nc(NCCC3C=NC=N3)nc3cc[nH]c(=O)c23)cc1 (stereo not drawn) | 0.929 |
| CC(=O)Nc1ccc(CNCCc2ccc(NC(=O)c3cc(Cl)cc(Cl)c3)cc2)cc1 | 0.684 |
| Clc1cc(Cl)c2cc(CN[C@H]3CCC[C@@H]3CNc3nc4ccccc4[nH]3)[nH]c2c1 | 0.275 |
| COC(=O)C(=C(C)C)N1C(=O)[C@@H](NC(=O)OCc2ccccc2)[C@H]1SS[C@@H]1[C@H](NC(=O)OCc2ccccc2)C(=O)N1C(C(=O)OC)=C(C)C | 0.434 |
| O=C(/C=C/c1ccc([N+](=O)[O-])cc1)N1CCC(NS(=O)(=O)c2ccc(Br)cc2)CC1 | 1.05 |
| O=C(Nc1ccc(OC2CCN(Cc3ccccc3)CC2)c(Cl)c1)c1ccsc1 | 0.9 |
| O=C(/C=C/c1ccc(Cl)c(Cl)c1)NCCCCCN1CCC(c2cn[nH]c2-c2ccccc2)CC1 | 1.22 |
| CCC1(CC)N=C(N)N=C(N)C1c1ccc(Cl)c(Cl)c1 (stereo not drawn) | 0.38 |
